Measurements as given in patent publication EP0234178A1, “New 8-substituted derivatives of an anhydrooctonic acid, methods for their preparation, pharmaceutical preparations containing these and intermediates” (Astra Läkemedel Aktiebolag, priority 1985, dated 1987).

Assays:
[1] = system: S. typhimurium AG701 i50 (KdsA^ts); test: Test III Inhibition of incorporation of 3H-arabinose-5-phosphate into LPS; type: cell-based, Salmonella typhimurium; settings: S. typhimurium AG701 i50, 30°C, samples after 10 min
Method: Arabinose-5-phosphate is a precursor of KDO in enteric bacteria. KdsA mutants of Salmonella typhimurium rapidly take up exogenous arabinose-5-phosphate and convert it to KDO which then appears exclusively in LPS (J. Biol. Chem. 255 (1980) 4257).
S. typhimurium AG701 i50 (KdsA^ts) was grown overnight at 30°C in minimal Medium (Eur. J. Biochem. 107 (1980) 145-153) supplemented with 1% glycerol and 0.01 mM D-fucose. The next day 0.1 ml of overnight culture was added to fresh medium and the culture grown at 30°C until mid logarithmic phase - (OD [formula] mm = 0.2) when 50 µl of "H-arabinose-5-phosphate (Amersham; specific activity 72 µCi/ml)-was added. After 10 min 0.45 ml samples were taken, the bacteria colleced by filtration (Whatman GF/F glass fibre filter) and washed with 6 ^x Iml PBS followed by 100 ml boiling water. This procedure ensures that all radioactive counts recorded represent arabinose-5-phosphate incorporated into LPS as KDO (J. Biol. Chem. 255 (1980) 4257).

Gram-negative bacteria = test: Test I Bactericidal activity (viable count after exposure to drug); type: cell-based; settings: final concentration of ImM, 15 min exposure, number of viable bacteria
Method: A range of Gram-negative bacteria were grown at 37°C in aerobic shake culture in nutrient broth for 16 h. O.I ml of these cultures were each inoculated into 5 ml of fresh broth and the cultures incubated further, until the bacteria reached mid-logarithmic phase, when the culture was harvested by centrifugation and resuspended in Basal Medium 2 (J Bacteriol 117 (1974) 3O2-311) to an OD 1cm 620 mm = 0.2 (equivalent to 10^8 bacteria/ml). Test compound was added to the bacterial suspension to give a final concentration of ImM. After 15 min exposure to drug the number of viable bacteria was determined by serial dilution in sterile phosphate buffered saline (PBS), plating out onto McConkey agar plates and incubating for 16 h at 37°C.

C[C@H](N)C(=O)N[C@@H](C)C(=O)NC[C@@H](O)[C@H]1O[C@H](C(=O)O)C[C@@H](O)[C@H]1O [Compound 6, N-(L-alanyl-L-alanyl)-8-amino-2,6-anhydro-3,8-dideoxy-D-glycero-D-talo-octonic acid]
incorporation of arabinose-5-phosphate into LPS / denovo LPS biosynthesis [1]: markedly inhibits
inhibitory action against the bacteria (Gram-negative bacteria): inhibitory action
